In patent publication US20030125352A1, “Therapeutic tropane compounds” (priority 2001, published 2003):
Where two headings read alike, the source gives them in different places.

Legend:
dopamine transporter = target: T1, dopamine transporter (Macaca fascicularis, UniProt Q9GJT6); assay: Dopamine transporter assay: inhibition of {3H}WIN 35,428 binding in caudate-putamen membranes; set-up: species or system rhesus or cynomolgus monkey; details: for IC50: {3H}WIN 35,428 binding, monkey caudate-putamen; for SERT/DAT: selectivity ratio of IC50 values
T1 construct: The caudate-putamen was dissected from coronal slices and yielded 1.4±0.4 g tissue; Membranes were prepared as described previously; from tissue; host or cells: caudate-putamen membranes of adult cynomolgus and rhesus monkeys
T1 sequence (Q9GJT6 whole entry): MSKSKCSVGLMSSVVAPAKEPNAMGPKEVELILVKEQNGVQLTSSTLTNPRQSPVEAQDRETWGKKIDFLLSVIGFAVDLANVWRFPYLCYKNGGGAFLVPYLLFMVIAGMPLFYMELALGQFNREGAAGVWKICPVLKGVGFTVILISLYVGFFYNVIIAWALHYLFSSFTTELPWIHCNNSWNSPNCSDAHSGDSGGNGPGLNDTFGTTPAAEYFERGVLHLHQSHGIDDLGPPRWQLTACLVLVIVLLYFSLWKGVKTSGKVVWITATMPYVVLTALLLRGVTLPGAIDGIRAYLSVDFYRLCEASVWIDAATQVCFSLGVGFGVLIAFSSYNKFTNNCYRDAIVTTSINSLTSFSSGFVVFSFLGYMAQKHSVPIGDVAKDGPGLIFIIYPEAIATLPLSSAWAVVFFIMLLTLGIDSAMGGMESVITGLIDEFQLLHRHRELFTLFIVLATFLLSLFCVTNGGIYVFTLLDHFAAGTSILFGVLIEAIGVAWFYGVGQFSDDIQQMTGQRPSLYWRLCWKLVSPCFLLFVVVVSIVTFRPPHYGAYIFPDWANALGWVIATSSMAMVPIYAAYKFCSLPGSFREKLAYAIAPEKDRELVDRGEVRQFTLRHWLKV

serotonin transporter = target: T2, serotonin transporter (Macaca mulatta, UniProt Q9MYX0); assay: Serotonin transporter assay: inhibition of {3H}citalopram binding in caudate-putamen membranes; set-up: species or system rhesus or cynomolgus monkey
T2 construct: The serotonin transporter was assayed in caudate-putamen membranes using conditions similar to those for the dopamine transporter; from tissue; host or cells: caudate-putamen membranes of adult cynomolgus and rhesus monkeys
T2 sequence (Q9MYX0 whole entry): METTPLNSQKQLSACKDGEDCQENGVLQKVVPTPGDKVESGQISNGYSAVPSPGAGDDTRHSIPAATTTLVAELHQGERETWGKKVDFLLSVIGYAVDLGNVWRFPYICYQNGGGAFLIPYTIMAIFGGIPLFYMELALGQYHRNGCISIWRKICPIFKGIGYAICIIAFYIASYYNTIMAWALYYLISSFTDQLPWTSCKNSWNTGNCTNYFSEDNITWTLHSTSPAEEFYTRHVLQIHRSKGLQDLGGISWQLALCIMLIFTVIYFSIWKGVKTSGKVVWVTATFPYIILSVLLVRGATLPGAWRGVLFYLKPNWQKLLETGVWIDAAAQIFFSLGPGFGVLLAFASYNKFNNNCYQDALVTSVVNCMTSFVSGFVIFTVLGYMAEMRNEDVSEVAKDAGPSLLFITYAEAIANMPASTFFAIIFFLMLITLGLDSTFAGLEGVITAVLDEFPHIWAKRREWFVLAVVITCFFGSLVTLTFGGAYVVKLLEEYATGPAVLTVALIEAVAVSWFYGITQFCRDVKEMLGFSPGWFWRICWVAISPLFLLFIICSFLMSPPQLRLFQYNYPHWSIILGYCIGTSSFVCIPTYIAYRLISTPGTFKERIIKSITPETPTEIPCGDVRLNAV

DAT = details: literature value, cited from earlier work; for IC50: binding to the DAT
[1] = IC50 (nM) SERT, Table 2, monkey caudate-putamen
[2] = Table 2, read-out: IC50 (nM) DAT
[3] = Table 2, monkey caudate-putamen, read-out: IC50 (nM) SERT

SMILES | IC50 (dopamine transporter; IC50 (nM) DAT, Table 2) | SERT/DAT (dopamine transporter; Table 2) | IC50 (serotonin transporter; [1]) | also measured
COC(=O)[C@@H]1[C@H]2CC[C@@H](C[C@H]1c1ccc(F)cc1)N2C (relative stereo) [Compound 16c] | 17.9 nM | 63 | 1130 nM | 
COC(=O)[C@@H]1[C@H]2C[C@H](O)[C@@H](C[C@H]1c1ccc(Cl)c(Cl)c1)N2C (relative stereo) [Compound 17a, 2β-Carbomethoxy-3α-(3,4-dichlorophenyl) -6β-hydroxy-8-methyl-8-azabicyclo{3.2.1}octane] | 6.09 nM | 238 | 1450 nM | 
COC(=O)[C@@H]1[C@H]2C[C@H](O)[C@@H](C[C@H]1c1ccc(F)cc1)N2C (relative stereo) [Compound 17c, 2βCarbomethoxy-3α-(4-fluorophenyl)-6β-hydroxy-8-methyl-8-azabicyclo{3.2.1}octane] | 739 nM | 8 | 5820 nM | 
COC(=O)[C@@H]1[C@H]2C[C@H](O)[C@@H](C[C@H]1c1ccccc1)N2C (relative stereo) [Compound 17d, 2β-Carbomethoxy-3α-phenyl-6β-hydroxy-8-methyl-8-azabicyclo{3.2.1}octane] | 3530 nM | >3 | > 10000 nM | 
COC(=O)[C@@H]1[C@H]2[C@H](O)C[C@@H](C[C@H]1c1ccc(Cl)c(Cl)c1)N2C (relative stereo) [Compound 18a, 2β-Carbomethoxy-3α(3,4-dichlorophenyl)-7β-hydroxy-8-methyl-8-azabicyclo{3.2.1}octane] | 1.19 nM | 1,170 | 1390 nM | 
COC(=O)[C@@H]1[C@H]2[C@H](O)C[C@@H](C[C@H]1c1ccccc1)N2C (relative stereo) [Compound 18d, 2β-Carbomethoxy-3α-phenyl-7β-hydroxy-8-methyl-8-azabicyclo{3.2.1}octane] | 518 nM | >190 | > 100000 nM | 
COC(=O)C1C(c2ccc(Cl)c(Cl)c2)CC2CC(O)C1N2C (single isomer, unassigned) [(1R)-18a] | 482 nM | 11 | 5300 nM | 
COC(=O)C1C(c2ccc(Cl)c(Cl)c2)CC2CC(O)C1N2C (single isomer, unassigned) [(1S)-18a] | 0.76 nM |  | 1220 nM | 
COC(=O)[C@H]1[C@@H](OC(=O)c2ccccc2)C[C@@H]2CC[C@H]1N2C [(1R)-(−)-cocaine] |  |  |  | binds at the dopamine transporter more potently than (1S)-(+)-cocaine (DAT): about 200 fold
COC(=O)[C@@H]1[C@H]2CC[C@@H](C[C@H]1c1ccc(Cl)c(Cl)c1)N2C [Compound 16a] | 0.38 nM | 73 | 27.7 nM | 
COC(=O)C1C(c2ccc3ccccc3c2)CC2C(O)CC1N2C (stereo not drawn) [Compound 17b, 2β-Carbomethoxy-3α-(2-naphthyl)-6β-hydroxy-8-methyl-8-azabicyclo{3.2.1}octane] |  | 6 |  | IC50 (dopamine transporter; [2]): 32 nM; IC50 (serotonin transporter; [3]): 180 nM
COC(=O)C1C(c2ccc3ccccc3c2)CC2CC(O)C1N2C (stereo not drawn) [Compound 18b, 2β-Carbomethoxy-3α-(2-naphthyl)-7β-hydroxy-8-methyl-8-azabicyclo{3.2.1}octane] |  | 34 |  | IC50 (serotonin transporter; [3]): 94 nM
COC(=O)[C@@H]1[C@H]2[C@H](O)C[C@@H](C[C@H]1c1ccc(F)cc1)N2C [Compound 18c, 2β-Carbomethoxy-3α-(4-fluorophenyl)-7β-hydroxy-8-methyl-8-azabicyclo{3.2.1}octane] |  | >120 |  | IC50 (dopamine transporter; [2]): 110 nM; IC50 (serotonin transporter; [3]): > 20000 nM
CCC(=O)C1C(c2ccc(Cl)c(Cl)c2)CC2CC(O)C1N2C (stereo not drawn) [Compound 26, 1-{3α-(3,4-Dichlorophenyl)-7β-hydroxy-8-methyl-8-azabicyclo{3.2.1}oct-2-yl}propan-1-one] |  |  |  | IC50 (dopamine transporter; Table 1, read-out: IC50 (nM) DAT): 1.1 nM; IC50 (serotonin transporter; Table 1, monkey caudate-putamen, read-out: IC50 (nM) SERT): 2520 nM
COC(=O)C1C(c2ccc(Cl)c(Cl)c2)CC2CCC1N2C (stereo not drawn) [Compound O-401, 2-carbomethoxy-3-(3,4-dichlorophenyl)-N -methyltropane] |  |  |  | IC50 (DAT): 1.09 nM
